From ChEMBL document CHEMBL1201862, “PubChem BioAssay data set” (2004)
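How tested: cells in 96-well plates exposed to compound for 48 hours at five concentrations. GI50: concentration for 50% inhibition of growth.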 The source made the active and inactive calls. Rule as the data show it: active = GI50 up to about 1.1 µM and inactive = higher.

What was measured:
Assay in all cases: inhibition of tumour cell growth, NCI panel, 48 h
SK-OV-3 = test system: SK-OV-3
TK-10 = test system: TK-10
RXF 393 = test system: RXF 393
HL-60 = test system: HL-60
SR = test system: SR
HCT-15 = test system: HCT-15
UO-31 = test system: UO-31
UACC-257 = test system: UACC-257
NCI-H226 = test system: NCI-H226
SK-MEL-5 = test system: SK-MEL-5
SF-268 = test system: SF-268
SF-539 = test system: SF-539
EKVX = test system: EKVX
U-251 = test system: U-251
RPMI-8226 = test system: RPMI-8226
SNB-75 = test system: SNB-75
MDA-MB-435 = test system: MDA-MB-435
PC-3 = test system: PC-3
COLO 205 = test system: COLO 205
OVCAR-8 = test system: OVCAR-8
HT-29 = test system: HT-29
MDA-MB-231 = test system: MDA-MB-231
SW-620 = test system: SW-620
KM12 = test system: KM12
MDA-N = test system: MDA-N
MOLT-4 = test system: MOLT-4
CCRF-CEM = test system: CCRF-CEM
DU-145 = test system: DU-145
NCI-H460 = test system: NCI-H460
786-0 = test system: 786-0
K562 = test system: K562
A549 = test system: A549
UACC-62 = test system: UACC-62
SK-MEL-28 = test system: SK-MEL-28
SN12C = test system: SN12C
SF-295 = test system: SF-295
A498 = test system: A498
Malme-3M = test system: Malme-3M
BT-549 = test system: BT-549
OVCAR-5 = test system: OVCAR-5
ACHN = test system: ACHN
SNB-19 = test system: SNB-19
HCC 2998 = test system: HCC 2998
MCF7 = test system: MCF7
IGROV-1 = test system: IGROV-1
NCI/ADR-RES = test system: NCI/ADR-RES
CAKI-1 = test system: CAKI-1
HCT-116 = test system: HCT-116
M14 = test system: M14
LOX IMVI = test system: LOX IMVI
OVCAR-4 = test system: OVCAR-4
NCI-H23 = test system: NCI-H23
OVCAR-3 = test system: OVCAR-3
Hs-578T = test system: Hs-578T
HOP-62 = test system: HOP-62
T47D = test system: T47D
SK-MEL-2 = test system: SK-MEL-2
NCI-H522 = test system: NCI-H522
HOP-92 = test system: HOP-92

COCCOCCOCCC(=O)NC1CC2CCC1(C)C2(C)C (centres undefined)
GI50 (SK-OV-3): > 100 µM (inactive) | GI50 (TK-10): > 100 µM (inactive) | GI50 (RXF 393): > 100 µM (inactive) | GI50 (HL-60): > 100 µM (inactive) | GI50 (SR): > 100 µM (inactive) | GI50 (HCT-15): > 100 µM | GI50 (UO-31): > 100 µM (inactive) | GI50 (UACC-257): > 100 µM (inactive) | GI50 (NCI-H226): > 100 µM (inactive) | GI50 (SK-MEL-5): > 100 µM (inactive) | GI50 (SF-268): > 100 µM (inactive) | GI50 (SF-539): > 100 µM (inactive) | GI50 (EKVX): > 100 µM (inactive) | GI50 (U-251): > 100 µM (inactive) | GI50 (RPMI-8226): > 100 µM (inactive) | GI50 (SNB-75): > 100 µM (inactive) | GI50 (MDA-MB-435): > 100 µM (inactive) | GI50 (PC-3): > 100 µM (inactive) | GI50 (COLO 205): > 100 µM (inactive) | GI50 (OVCAR-8): > 100 µM (inactive) | GI50 (HT-29): > 100 µM (inactive) | GI50 (MDA-MB-231): > 100 µM (inactive) | GI50 (SW-620): > 100 µM (inactive) | GI50 (KM12): > 100 µM (inactive) | GI50 (MDA-N): > 100 µM (inactive) | GI50 (MOLT-4): > 100 µM (inactive) | GI50 (CCRF-CEM): > 100 µM (inactive) | GI50 (DU-145): > 100 µM (inactive) | GI50 (NCI-H460): > 100 µM (inactive) | GI50 (786-0): > 100 µM (inactive) | GI50 (K562): > 100 µM (inactive) | GI50 (A549): > 100 µM (inactive) | GI50 (UACC-62): > 100 µM (inactive) | GI50 (SK-MEL-28): > 100 µM (inactive) | GI50 (SN12C): > 100 µM (inactive) | GI50 (SF-295): > 100 µM (inactive) | GI50 (A498): > 100 µM (inactive) | GI50 (Malme-3M): > 100 µM (inactive) | GI50 (BT-549): > 100 µM (inactive) | GI50 (OVCAR-5): > 100 µM (inactive) | GI50 (ACHN): > 100 µM (inactive) | GI50 (SNB-19): > 100 µM (inactive) | GI50 (HCC 2998): > 100 µM (inactive) | GI50 (MCF7): > 100 µM (inactive) | GI50 (IGROV-1): > 100 µM (inactive) | GI50 (NCI/ADR-RES): > 100 µM (inactive) | GI50 (CAKI-1): > 100 µM (inactive) | GI50 (HCT-116): > 100 µM (inactive) | GI50 (M14): > 100 µM (inactive) | GI50 (LOX IMVI): > 100 µM (inactive) | GI50 (OVCAR-4): > 100 µM (inactive) | GI50 (NCI-H23): > 100 µM (inactive) | GI50 (OVCAR-3): > 100 µM (inactive) | GI50 (Hs-578T): > 100 µM (inactive) | GI50 (HOP-62): > 100 µM (inactive)

CCOC(=O)c1c2c(n(Cc3ccccc3)c1C)C(=O)C(=O)c1ccccc1-2
GI50 (T47D): 0.579 µM (active) | GI50 (SK-OV-3): 0.61 µM (active) | GI50 (TK-10): 0.64 µM (active) | GI50 (RXF 393): 0.703 µM (active) | GI50 (HL-60): 0.0129 µM (active) | GI50 (HCT-15): 0.366 µM | GI50 (UO-31): 0.906 µM (active) | GI50 (UACC-257): 0.0989 µM (active) | GI50 (NCI-H226): 0.55 µM (active) | GI50 (SK-MEL-5): 0.295 µM (active) | GI50 (SF-268): 0.415 µM (active) | GI50 (SF-539): 0.24 µM (active) | GI50 (EKVX): 0.726 µM (active) | GI50 (U-251): 0.263 µM (active) | GI50 (RPMI-8226): 0.119 µM (active) | GI50 (SNB-75): 0.309 µM (active) | GI50 (MDA-MB-435): 0.0612 µM (active) | GI50 (PC-3): 0.807 µM (active) | GI50 (COLO 205): 0.705 µM (active) | GI50 (OVCAR-8): 0.237 µM (active) | GI50 (HT-29): 0.989 µM (active) | GI50 (MDA-MB-231): 0.351 µM (active) | GI50 (SW-620): 0.18 µM (active) | GI50 (KM12): 0.574 µM (active) | GI50 (MOLT-4): 0.17 µM (active) | GI50 (CCRF-CEM): 0.134 µM (active) | GI50 (DU-145): 0.465 µM (active) | GI50 (NCI-H460): 0.418 µM (active) | GI50 (786-0): 0.56 µM (active) | GI50 (K562): 0.122 µM (active) | GI50 (A549): 0.431 µM (active) | GI50 (UACC-62): 0.284 µM (active) | GI50 (SK-MEL-28): 0.177 µM (active) | GI50 (SK-MEL-2): 1.26 µM (inactive) | GI50 (SN12C): 0.171 µM (active) | GI50 (SF-295): 0.497 µM (active) | GI50 (Malme-3M): 0.0968 µM (active) | GI50 (BT-549): 0.337 µM (active) | GI50 (OVCAR-5): 0.541 µM (active) | GI50 (ACHN): 0.275 µM (active) | GI50 (SNB-19): 0.315 µM (active) | GI50 (HCC 2998): 0.56 µM (active) | GI50 (MCF7): 0.293 µM (active) | GI50 (IGROV-1): 1.15 µM (inactive) | GI50 (NCI/ADR-RES): 0.466 µM (active) | GI50 (NCI-H522): 0.778 µM (active) | GI50 (CAKI-1): 0.5 µM (active) | GI50 (HCT-116): 0.235 µM (active) | GI50 (M14): 0.452 µM (active) | GI50 (LOX IMVI): 0.174 µM (active) | GI50 (OVCAR-4): 0.0794 µM (active) | GI50 (NCI-H23): 0.231 µM (active) | GI50 (HOP-92): 0.802 µM (active) | GI50 (OVCAR-3): 0.0615 µM (active) | GI50 (Hs-578T): 0.925 µM (active) | GI50 (HOP-62): 0.238 µM (active)

Cc1ccc(Oc2cc(C)ccc2P(=O)(O)O)cc1
GI50 (SK-OV-3): > 100 µM (inactive) | GI50 (TK-10): > 100 µM (inactive) | GI50 (RXF 393): > 100 µM (inactive) | GI50 (HL-60): > 100 µM (inactive) | GI50 (HCT-15): > 100 µM | GI50 (UO-31): > 100 µM (inactive) | GI50 (UACC-257): > 100 µM (inactive) | GI50 (NCI-H226): > 100 µM (inactive) | GI50 (SK-MEL-5): > 100 µM (inactive) | GI50 (SF-268): > 100 µM (inactive) | GI50 (SF-539): > 100 µM (inactive) | GI50 (EKVX): > 100 µM (inactive) | GI50 (RPMI-8226): > 100 µM (inactive) | GI50 (SNB-75): > 100 µM (inactive) | GI50 (MDA-MB-435): > 100 µM (inactive) | GI50 (PC-3): > 100 µM (inactive) | GI50 (COLO 205): > 100 µM (inactive) | GI50 (OVCAR-8): > 100 µM (inactive) | GI50 (MDA-MB-231): > 100 µM (inactive) | GI50 (SW-620): > 100 µM (inactive) | GI50 (KM12): > 100 µM (inactive) | GI50 (MDA-N): > 100 µM (inactive) | GI50 (MOLT-4): > 100 µM (inactive) | GI50 (CCRF-CEM): > 100 µM (inactive) | GI50 (DU-145): > 100 µM (inactive) | GI50 (786-0): > 100 µM (inactive) | GI50 (K562): > 100 µM (inactive) | GI50 (A549): > 100 µM (inactive) | GI50 (UACC-62): > 100 µM (inactive) | GI50 (SK-MEL-28): > 100 µM (inactive) | GI50 (SK-MEL-2): > 100 µM (inactive) | GI50 (SN12C): > 100 µM (inactive) | GI50 (SF-295): > 100 µM (inactive) | GI50 (BT-549): > 100 µM (inactive) | GI50 (SNB-19): > 100 µM (inactive) | GI50 (HCC 2998): > 100 µM (inactive) | GI50 (MCF7): > 100 µM (inactive) | GI50 (IGROV-1): > 100 µM (inactive) | GI50 (NCI-H522): > 100 µM (inactive) | GI50 (CAKI-1): > 100 µM (inactive) | GI50 (HCT-116): > 100 µM (inactive) | GI50 (M14): > 100 µM (inactive) | GI50 (LOX IMVI): > 100 µM (inactive) | GI50 (NCI-H23): > 100 µM (inactive) | GI50 (HOP-92): > 100 µM (inactive) | GI50 (OVCAR-3): > 100 µM (inactive) | GI50 (Hs-578T): > 100 µM (inactive) | GI50 (HOP-62): > 100 µM (inactive)
